Square brackets hold non-standard residues; d marks the D form. Peptide text beside a SMILES is read from it. NMeR = CN[C@@H](CCCNC(=N)N)C(=O)O; 3Amb = NCc1cccc(C(=O)O)c1; dAbu = CC[C@@H](N)C(=O)O
Molecular target: Integrin alpha-V/beta-3 (Homo sapiens, UniProt P05106+P06756)
Test: Inhibition of alphaV-beta3 interaction with vitronectin
Type: protein-complex assay

Sequence of Integrin alpha-V/beta-3 (P05106 27-788 limits assumed): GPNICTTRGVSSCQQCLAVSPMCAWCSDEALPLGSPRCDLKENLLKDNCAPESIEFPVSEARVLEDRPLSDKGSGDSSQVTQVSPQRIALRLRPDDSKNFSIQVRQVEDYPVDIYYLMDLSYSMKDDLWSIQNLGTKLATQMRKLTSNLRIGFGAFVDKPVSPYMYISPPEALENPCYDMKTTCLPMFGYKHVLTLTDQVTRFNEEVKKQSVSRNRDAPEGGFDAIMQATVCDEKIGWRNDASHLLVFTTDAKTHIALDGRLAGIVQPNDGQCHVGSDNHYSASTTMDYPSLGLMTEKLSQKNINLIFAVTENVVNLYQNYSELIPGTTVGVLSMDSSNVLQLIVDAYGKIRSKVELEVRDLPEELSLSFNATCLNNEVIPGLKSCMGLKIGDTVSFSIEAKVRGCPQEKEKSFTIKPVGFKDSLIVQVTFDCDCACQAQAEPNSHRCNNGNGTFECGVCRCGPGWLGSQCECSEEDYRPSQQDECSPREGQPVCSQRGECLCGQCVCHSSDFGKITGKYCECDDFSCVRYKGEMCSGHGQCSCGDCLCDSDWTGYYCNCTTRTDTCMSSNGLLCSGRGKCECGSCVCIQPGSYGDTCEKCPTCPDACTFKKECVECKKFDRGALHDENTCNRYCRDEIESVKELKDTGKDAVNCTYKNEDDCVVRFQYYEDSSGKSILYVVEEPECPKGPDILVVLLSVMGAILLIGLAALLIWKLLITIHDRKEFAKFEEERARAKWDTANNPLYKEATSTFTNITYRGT
Sequence of Integrin alpha-V/beta-3 (P06756 31-889 limits assumed): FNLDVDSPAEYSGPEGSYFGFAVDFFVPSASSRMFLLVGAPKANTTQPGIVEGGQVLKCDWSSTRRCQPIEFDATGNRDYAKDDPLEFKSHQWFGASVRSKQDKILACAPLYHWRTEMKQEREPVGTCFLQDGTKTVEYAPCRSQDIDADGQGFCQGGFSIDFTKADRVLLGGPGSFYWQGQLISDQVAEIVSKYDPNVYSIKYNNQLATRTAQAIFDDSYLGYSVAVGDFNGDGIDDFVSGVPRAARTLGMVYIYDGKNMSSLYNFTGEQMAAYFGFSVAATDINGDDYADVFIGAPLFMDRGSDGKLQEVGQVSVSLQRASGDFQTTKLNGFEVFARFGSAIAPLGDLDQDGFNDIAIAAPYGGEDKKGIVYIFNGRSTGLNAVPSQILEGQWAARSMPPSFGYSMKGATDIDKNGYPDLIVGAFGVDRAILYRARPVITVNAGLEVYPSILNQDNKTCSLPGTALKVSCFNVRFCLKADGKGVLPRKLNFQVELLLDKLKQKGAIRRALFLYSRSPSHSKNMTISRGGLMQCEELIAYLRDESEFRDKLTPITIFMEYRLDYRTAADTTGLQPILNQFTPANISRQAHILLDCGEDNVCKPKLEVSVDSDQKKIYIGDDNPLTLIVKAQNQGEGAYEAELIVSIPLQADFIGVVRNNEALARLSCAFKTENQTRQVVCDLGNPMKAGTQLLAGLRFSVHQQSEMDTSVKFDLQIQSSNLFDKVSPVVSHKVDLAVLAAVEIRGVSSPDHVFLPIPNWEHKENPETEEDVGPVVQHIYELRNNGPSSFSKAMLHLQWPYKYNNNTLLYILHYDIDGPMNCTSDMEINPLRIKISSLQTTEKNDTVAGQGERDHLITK
Sequence of Integrin alpha-V/beta-3 (P06756 891-1048 limits assumed): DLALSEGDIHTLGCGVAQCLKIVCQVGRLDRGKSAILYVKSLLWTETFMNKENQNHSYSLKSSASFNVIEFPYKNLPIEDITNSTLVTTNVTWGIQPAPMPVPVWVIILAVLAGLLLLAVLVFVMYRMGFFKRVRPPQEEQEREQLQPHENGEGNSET

Structure (SMILES)	IC50 [nM]
N=C(N)NCCC[C@@H]1NC(=O)[C@H](CC(=O)O)NC(=O)CNC(=O)[C@H](CCCNC(=N)N)NC(=O)[C@H](CC(=O)O)NC(=O)CNC1=O	140
N=C(N)NCCC[C@@H]1NC(=O)[C@H](CC(=O)O)NC(=O)CNC(=O)[C@H](CCCNC(=N)N)NC(=O)[C@@H](CC(=O)O)NC(=O)CNC1=O	320
NC(N)=NCCC[C@H](NC(=O)[C@H](CC(=O)O)NC(=O)CNC(=O)[C@@H](N)CCCN=C(N)N)C(=O)NCC(=O)N[C@@H](CC(=O)O)C(=O)O (H-RGDRGD-OH)	70
CC[C@H]1NC(=O)c2cccc(c2)CNC(=O)[C@H](CC(=O)O)NC(=O)CNC(=O)[C@H](CCCN=C(N)N)N(C)C1=O (cyclo([NMeR]GD[3Amb][dAbu]))	> 10000
